Test results taken from patent publication US4443448A, “Indane derivatives, pharmaceutical compositions thereof and method of preparation” (priority 1980, dated 1984).

How the values were obtained:
[1] = system: methylphenidate; assay: Methylphenidate antagonism in mice; assay type: in vivo; conditions: for ED50: Mus musculus, ip, 2 h, read-out: MePh antag. ED50 2 hr i.p., mice, test substance i.p., 2 hr before methylphenidate 60 mg/kg s.c.
Experimental: Methylphenidate antagonism (ED50 mg/kg i.p.)
(§1) Perspex observation cages without bottom and lid, consisting of 5 sections each measuring 12×25×30 cm.
3×2 mice are used for each dose level. Two or 24 hours after injection of test substance, methylphenidate, 60 mg/kg, is injected s.c. After administration of methylphenidate the mice are placed in the observation cages, 2 in each cage, where they remain for exactly 1 hour. The cages were placed on corrugated paper, the corrugations facing upwards. It is examined whether the mice have been biting the corrugated paper or not. […] If one or more of the control pairs have not been biting, the test has to be repeated on a new set of mice.
The result is stated in fractions: 0/3, 1/3, 2/3 and 3/3 where 0, 1, 2 and 3 are the number of pairs which have not been biting on receipt of the dose in question.

[2] = system: amphetamine; assay: Amphetamine antagonism in rats; assay type: in vivo; conditions: rats, p.o., amphetamine 10 mg/kg base i.v.; for ED50: Rattus norvegicus, po, read-out: Amphetamine antag. ED50 p.o.
Experimental: Amphetamine antagonism (ED50 mg/kg i.p.)
as §1
The test substance is given p.o. in a reasonable dose based on the determined LD50. Two or 24 hours later an intravaneous injection of amphetamine sulphate 13.6 mg/kg (10 mg/kg amphetamine base) is given, after which the rats are placed individually in the cages. The cages are placed on white corrugated paper. Five rats are used for each dose level. Observations are made after 55 minutes and 65 minutes-observation time: 1 minute. The animals are observed for stereotypy (movements of the head, compulsive gnawing). […] If the compound has full antagonistic effect another group of rats is used at a lower dose. […] The result is stated as fractions: 0/5, 1/5, 2/5, 3/5, 4/5 and 5/5, where 0, 1, 2, 3, 4 and 5 indicate the number of rats which have not shown stereotypy at the dose in question. The results are calculated as ED50 in mg/kg.

[3] = in vivo; design: species or system rats; conditions: for Ratio catalep./Amphet.: catalepsy ED50 / amphetamine antagonism ED50; for ED50: rat, in vivo, po, read-out: Catalep. (catalepsy wire mesh, rat, max, ED50)
Experimental: A vertical wire netting (50 cm×49 cm). The meshes (openings) of the netting are square (1 cm×1 cm). The wire diameter is 2 mm.
The animals are labeled and used in groups of five. The test substance is administered orally (p.o) at 4 dose levels selected from the fixed dose scale.
The animals are placed in the middle of the vertical wire netting 60, 120, 180, 240, 300 and 360 minutes after administration of the test compound. The animals are considered cataleptic when they remain immobile during a period of 15 seconds.
This cataleptic reaction is designated +. If the rats are "atonic" and passively slide down the wire mesh they are considered not cataleptic. If the animals climb up and down the wire mesh they are nor cataleptic.
In both situations the designation--is used.

[4] = Mouse grid shock (analgesia); assay type: in vivo; conditions: mice, minimal effective dose, in mg/kg
Experimental: The mouse grid consists of a perspex cage with wire grid bottom and a perspex lid, on which is placed a microphone sensitive to the frequency of a mouse squeak. A stimulator with motordriven potentiometer applies a sequence of square wave impulses of continuously increasing milliamperage to the grid. Frequency of impulses 20 cycles/sec., duration 5 msec. Milliamperage is recorded on a digital amperemeter connected to the stimulator. Activation of the microphone by a mouse-squeak cuts off the current and the final milliamperage appears on the meter.
Five mice are used for each dose level. Each mouse serves as its own control.
Prior to the administration of test substance the animals are placed on the grid one at a time, and the pain threshold is determined by increasing the current intensity until the mouse squeaks. The pain threshold may be read on the milliamperemeter. Fifteen minutes and 30 minutes after administration of test substance the mice are tested again and the pain thresholds recorded.
Analgesic effect is present, when the pain threshold is increased over the pre-dosing value (control value). The results are stated as % increase in pain threshold calculated on the basis of the control value.
The registration can also be done as an on-line procedure. In this case the punching instruction and punching cards will be provided automatically and the results will be registered as a minimal effective dose (MED) determined after van der Waerdens X-test.

[5] = Pharmacological animal tests, general statements on activity; conditions: in vivo
Experimental: After recrystallisation from 500 milliliters of methanol 18.5 grams of the (-)-isomer of Lu 13-092, D-(-)-tartrate were obtained, melting at 207°-209° C. […] The novel indanes of Formula I were tested pharmacologically in standard and reliable animal tests.

[6] = in vivo; conditions: iv
[7] = system: 3H-DA uptake in striatal synaptosomes; assay: 3H-DA uptake in striatal synaptosomes in vitro; assay type: biochemical, rats; conditions: rat striatal synaptosomes, 12.5 nM 3H-DA, 37° C., pH 7.4
Experimental: ^3 H-DA uptake in striatal synaptosomes in vitro
0.32 M sucrose containing 1 mM Nialamide
Millipore filters (HAWPO 2500, 0.45μ)
3,4-dihydroxyphenylethylamine[ethyl-1-^3 H(N)]=^3 H-DA spc. act. app. 15 Ci/mmol, New England Nuclear Thomas Tissue Grinder, clearance 0.004-0.006 inch.
Rats are killed by a blow to their head, exsanguinated and their brains removed. The brain is placed on a precooled glassplate, and the two corpura striata are dissected out and gently homogenized in 40 volumes of ice cold 0.32 M sucrose containing 1 mM of nialamide using a hand homogenizer with teflon pestle. The P2 -fraction (synaptosomal fraction) is obtained by centrifugation (600 g, 10 min., 25000 g, 55 min. 4° C.) and suspended in 40 volumes of a modified Krebs-Ringer-phosphate buffer, pH 7.4. To 200 μl of the synaptosomal fraction on ice are added 3700 μl modified Krebs-Ringer-phosphate buffer--containing test compounds. After a preincubation at 37° C. for 5 min. […] The incubation is terminated by filtering the samples under vacuum through Millipore filters with a wash of 5 ml buffer containing 10 μM of unlabelled DA. After solubilizing the filters in 1 ml of cellosolve the radioactivity is determined by liquid scintillation counting after the addition of 10 ml of Insta-Gel. The unspecific binding of ^3 H-DA is determined by incubating control samples on ice instead of at 37° C.
All experiments are performed in triplicate.
The mean of all control samples and ice samples are calculated. […] The IC50-values are determined as the concentrations, at which the uptake are 50 percent of the uptake in control samples-uptake in ice samples.

[8] = rats, p.o., strongest effect within first 6 hours

With `CN1CCN([C@@H]2C[C@@H](c3ccc(F)cc3)c3ccc(F)cc32)CC1` (relative stereo) [Lu 13-092, trans-1-methyl-4-(3-(4'-fluorophenyl)-6-fluoro-1-indanyl)piperazine] the ED50 [1] was 4.2 mg/kg, the ED50 [2] was 14.8 mg/kg and the “Ratio catalep./Amphet.” value [3] was 5.5. For the same compound, the ED50 [3, 8] was 81 mg/kg, the “MED Grid Shock” value [4] was 1.3 and the “neuroleptic activity” value [5] was “the neuroleptic active isomer is the trans-isomer”. For the same compound, the LD50 [6] was 80 mg/kg.
In the case of `OCCCN1CCN([C@@H]2C[C@@H](c3ccc(F)cc3)c3ccc(F)cc32)CC1` (relative stereo) [Lu 14-036], the ED50 [1] is reported as 1.6 mg/kg, the ED50 [2] is reported as 2.3 mg/kg and the “Ratio catalep./Amphet.” value [3] is reported as 1.6. For the same compound, the ED50 [3, 8] was 3.7 mg/kg, the “MED Grid Shock” value [4] was 5 and the IC50 [7] was 73 nM. The LD50 [6] was 129 mg/kg.
In the case of `CN1CCN([C@@H]2C[C@@H](c3ccccc3)c3ccc(F)cc32)CC1` (relative stereo) [Lu 14-067], the ED50 [1] is reported as greater than 40 mg/kg, the “MED Grid Shock” value [4] is reported as 5 and the IC50 [7] is reported as 68 nM.
With `OCCN1CCN([C@@H]2C[C@@H](c3ccc(F)cc3)c3ccc(Cl)cc32)CC1` (relative stereo) [Lu 14-068] the ED50 [1] was 1.3 mg/kg, the ED50 [2] was 1.6 mg/kg and the “Ratio catalep./Amphet.” value [3] was 0.9. For the same compound, the ED50 [3, 8] was 1.5 mg/kg, the “MED Grid Shock” value [4] was 0.31 and the IC50 [7] was 84 nM. For the same compound, the LD50 [6] was 94 mg/kg.
`CN1CCN([C@@H]2C[C@H](c3ccc(Cl)c(Cl)c3)c3ccccc32)CC1` (relative stereo) [Lu 17-109] gave an IC50 [7] of 4 nM.
`CN1CCN([C@@H]2C[C@@H](c3ccc(Cl)c(Cl)c3)c3ccccc32)CC1` (relative stereo) [Lu 17-110] showed an IC50 [7] of 11 nM.
Compound `OCCN1CCN([C@@H]2C[C@H](c3ccc(Cl)c(Cl)c3)c3ccccc32)CC1` (relative stereo) [Lu 17-132] has an IC50 [7] of 12 nM.
Work on `OCCN1CCN([C@@H]2C[C@@H](c3ccc(Cl)c(Cl)c3)c3ccccc32)CC1` (relative stereo) [Lu 17-133] yielded an IC50 [7] of 3 nM.
With `OCCCCN1CCN([C@@H]2C[C@@H](c3ccc(F)cc3)c3ccc(F)cc32)CC1` (relative stereo) [Lu 18-080] the ED50 [1] was 2.9 mg/kg, the ED50 [2] was 3.5 mg/kg and the “Ratio catalep./Amphet.” value [3] was 6.2. The ED50 [3, 8] was 21.8 mg/kg, the “MED Grid Shock” value [4] was less than 1.3 and the IC50 [7] was 25 nM. For the same compound, the LD50 [6] was 80 mg/kg.
`OCCCN1CCN([C@@H]2C[C@@H](c3ccc(Cl)c(Cl)c3)c3ccccc32)CC1` (relative stereo) [Lu 18-081] gave an IC50 [7] of 15 nM.
For `OCCCN1CCN([C@@H]2C[C@H](c3ccc(Cl)c(Cl)c3)c3ccccc32)CC1` (relative stereo) [Lu 18-082], the IC50 [7] was 6 nM.
With `OCCCCN1CCN([C@@H]2C[C@H](c3ccc(Cl)c(Cl)c3)c3ccccc32)CC1` (relative stereo) [Lu 18-120] the IC50 [7] was 5 nM.
For `OCCCCN1CCN([C@@H]2C[C@@H](c3ccc(Cl)c(Cl)c3)c3ccccc32)CC1` (relative stereo) [Lu 18-121], the IC50 [7] was 11 nM.
For `OCC(O)CN1CCN(C2CC(c3ccc(F)cc3)c3ccc(F)cc32)CC1` (single isomer, unassigned) [Lu 17-066], the ED50 [1] was 1.6 mg/kg, the ED50 [2] was 18 mg/kg and the “Ratio catalep./Amphet.” value [3] was 8.9. The ED50 [3, 8] was greater than 160 mg/kg, the “MED Grid Shock” value [4] was 2.5 and the IC50 [7] was 27 nM. For the same compound, the LD50 [6] was greater than 160 mg/kg.
With `OCC(O)CN1CCN(C2CC(c3ccc(F)cc3)c3ccc(F)cc32)CC1` (single isomer, unassigned) [Lu 17-079] the IC50 [7] was 12 nM.
Work on `OCC(O)CN1CCN(C2CC(c3ccc(Cl)c(Cl)c3)c3ccccc32)CC1` (single isomer, unassigned) [Lu 18-128] yielded an IC50 [7] of 12 nM.
`OCC(O)CN1CCN(C2CC(c3ccc(Cl)c(Cl)c3)c3ccccc32)CC1` (single isomer, unassigned) [Lu 18-129] showed an IC50 [7] of 14 nM.
With `CN1CCN(C2CC(c3ccc(F)cc3)c3ccc(F)cc32)CC1` (single isomer, unassigned; (-)) [Lu 17-152, (-) 1-Methyl-4-(3-(4'-fluorophenyl)-6-fluoro-1-indanyl)piperazine] the “MePh antag. ED50 2 hr i.p.” value ([1]; mice, test substance i.p., 2 hr before methylphenidate 60 mg/kg s.c., 120 min) was 17 mg/kg, the “Amphetamine antag. ED50 p.o.” value [2] was greater than 80 mg/kg and the “Catalep. (catalepsy wire mesh, rat, max, ED50)” value [3, 8] was greater than 320 mg/kg. For the same compound, the “MED Grid Shock” value [4] was 5 and the IC50 [7] was 88 nM.
For `CC(C)N1CCN(C2CC(c3ccc(F)cc3)c3ccc(F)cc32)CC1` (centres unmarked) [Lu 17-062, 1-Isopropyl-4-(3-(4'-fluorophenyl)-6-fluoro-1-indanyl)piperazine], the ED50 [1] was 1.3 mg/kg, the ED50 [2] was 10 mg/kg and the “Ratio catalep./Amphet.” value [3] was 1.4. The ED50 [3, 8] was 14 mg/kg, the “MED Grid Shock” value [4] was 5 and the “neuroleptic activity” value [5] was “neuroleptical active isomer”. For the same compound, the LD50 [6] was 113 mg/kg.
In the case of `CC(O)CN1CCN(C2CC(c3ccc(F)cc3)c3ccc(F)cc32)CC1` (centres unmarked) [Lu 17-144, 1-(2-hydroxy-1-propyl)-4-(3-(4'-fluorophenyl)-6-fluoro-1-indanyl)piperazine], the IC50 [7] is reported as 18 nM.
